In US4271163A, “Novel 3,4-diaza-bicyclo[4.1.0]hept-2-en-5-ones, their preparation, and therapeutic agents containing these compounds” (BASF Aktiengesellschaft, priority 1978, dated 1981):
Converted amounts (≈) assume the structure as drawn.

Legend:
rat thrombocytes = assay: Inhibition of the collagen-induced aggregation of rat thrombocytes ex vivo; type: in vivo, rat (male Sprague-Dawley); conditions: rats; for ED (33%): Rattus norvegicus, dose which inhibits the collagen-induced aggregation by 33%, read-out: Inhibition of thrombocyte aggregation, ED 33%; for ED (33%) / Inhibition of thrombocyte aggregation, R.A. (relative activity): oral administration; for Inhibition of thrombocyte aggregation, R.A. (relative activity): acetylsalicylic acid = 1.00; for Inhibition of thrombocyte aggregation after oral administration in vivo (in words): versus acetylsalicylic acid
Protocol: (§1) Thrombocyte-rich plasma is obtained by centrifuging venous citrate blood (300 g, 10 minutes duration at 4° C.). The photometric measurement of the thrombocyte aggregation is carried out with addition of MgCl2 (final concentration 10 millimoles/l) and of collagen Stago (final concentration 0.02 mg/ml) in a Born Mk 3 aggregometer. The maximum extinction change/sec is used as a measure of the aggregation.
2. Inhibition of the collagen-induced aggregation of rat thrombocytes ex vivo.
The substances are administered orally to groups of 10-15 male Sprague-Dawley rat weighing 200-250 g. 1-4 hours after administration, blood is taken under ether narcosis and thrombocyte-rich plasma is obtained by centrifuging. The aggregation after addition of collagen is measured as indicated above. The ED 33% is determined as the dose which inhibits the collagen-induced thrombocyte aggregation by 33%.
(§2) The effective doses or effective concentrations were calculated from the linear relationships between the logarithm of the dose or concentration and the logarithm of the effect, by means of regression analysis.
(§3) Acetylsalicylic acid was used as the reference substance for the inhibition of thrombocyte aggregation and dihydralazine for the anti-hypertensive effect.

narcotized rats = assay: Anti-hypertensive effect on narcotized rats; type: in vivo, rat (male Sprague-Dawley); conditions: rats under urethane narcosis, intraperitoneal; for ED (20%): Rattus norvegicus, ip, dose which lowers the blood pressure by 20%, read-out: Reduction in blood pressure, ED 20%; for Reduction in blood pressure, R.A. (relative activity): dihydralazine = 1.00
Protocol: 3. Anti-hypertensive effect on narcotized rats.
To test the anti-hypertensive effect, the substances are administered intraperitoneally to groups of 3-5 male Sprague-Dawley rats weighing 240-280 g, under urethane narcosis ([…] given intraperitoneally).
The measurement of the blood pressure in the carotid artery is carried out by means of Statham transducers. The ED 20% is determined as the dose which lowers the mean carotid blood pressure by 20%.
as §2, §3

human thrombocytes = assay: Inhibition of the collagen-induced aggregation of human thrombocytes in vitro; type: cell-based; conditions: human thrombocytes in vitro; for EC50: 10 min, concentration which inhibits the collagen-induced aggregation by 50%, 10 minutes incubation, read-out: Inhibition of collagen-induced thrombocyte aggregation in vitro, EC 50%; for Inhibition of aggregation, R.A. (relative activity): acetylsalicylic acid = 1.00
Protocol: 1. Inhibition of the collagen-induced aggregation of human thrombocytes in vitro.
as §1
The aggregation-inhibiting activity of the substances is tested after an incubation time of 10 minutes.
The EC 50% is taken to be the concentration causing 50% inhibition of aggregation.
as §2, §3

[1] = tested on: spontaneously hypertonic rats; assay: Anti-hypertensive effect on spontaneously hypertonic rats; type: in vivo, rat (male spontaneously hypertonic Okamoto); conditions: for ED (20%): Rattus norvegicus, 2 h, dose which lowers the blood pressure by 20% compared to the control group; for ED (20%) / Anti-hypertensive effect, R.A.: oral administration; for Anti-hypertensive effect, R.A.: dihydralazine = 1.00
Protocol: 4. Anti-hypertensive effect on spontaneously hypertonic rats.
The substances are administered orally to groups of 4-8 male spontaneously hypertonic Okamoto rats weighing 270-340 g. Before, and 2 hours after, the administration, the systolic blood pressure is measured non-surgically by means of piezo-electric crystal sensors.
The ED 20% is determined as the dose which lowers the systolic pressure by 20%, taking into account the values found with untreated control animals.
as §2, §3

SMILES | ED (33%) (rat thrombocytes) [mg/kg] | Inhibition of thrombocyte aggregation, R.A. (relative activity) (rat thrombocytes) | Inhibition of thrombocyte aggregation after oral administration in vivo (in words) (rat thrombocytes) | ED (20%) (narcotized rats) [mg/kg] | Reduction in blood pressure, R.A. (relative activity) (narcotized rats) | EC50 (human thrombocytes) [µg/mL] | Inhibition of aggregation, R.A. (relative activity) (human thrombocytes) | ED (20%) [1] [mg/kg] | Anti-hypertensive effect in spontaneously hypertonic rats after oral administration (in words) [1] | Anti-hypertensive effect, R.A. [1]
CC(=O)Nc1ccc(C2=NNC(=O)C3CC23)cc1 (centres unmarked) [Example 7, 2-(p-acetylaminophenyl)-3,4-diaza-bicyclo[4.1.0]hept-2-en-5-one] | 30.7 | 4.36 | far surpasses the effect of acetylsalicylic acid | 0.193 | 1.75 | 0.14 (≈ 0.576 µM) | 3530 | 8.65 | demonstrable | 0.79
CC(Cl)C(=O)Nc1ccc(C2=NNC(=O)C3CC23)cc1 (centres unmarked) [Example 20, 2-[p-(2-chloropropionylamino)-phenyl]-3,4-diaza-bicyclo[4.1.0]hept-2-en-5-one] | 3.74 | 35.83 | far surpasses the effect of acetylsalicylic acid | 0.278 | 1.21 | 0.99 (≈ 3.39 µM) | 499 | 10 | demonstrable | 0.69
